In patent US20240158446A1, “CYCLIC COMPOUND HAVING SELECTIVE INHIBITORY ACTION ON KRAS OVER HRAS AND NRAS” (CHUGAI SEIYAKU KABUSHIKI KAISHA, priority 2021, published 2024):
Where two headings read alike, the source gives them in different places. Where a SMILES comes first, the peptide text is derived from it. Bridges are numbered along the chain shown (N, C = ends). [ ]: non-standard residue; d: D form. The star is where a group is joined. hPhe(3-Cl-4-CF3) = N[C@@H](CCc1ccc(C(F)(F)F)c(Cl)c1)C(=O)O; NPrPhe(4-CF3) = CCCN[C@@H](Cc1ccc(C(F)(F)F)cc1)C(=O)O; hPhe(3,4-Cl2) = N[C@@H](CCc1ccc(Cl)c(Cl)c1)C(=O)O; NMePhe(4-Me) = CN[C@@H](Cc1ccc(C)cc1)C(=O)O; NMeGly(cPent) = CN[C@H](C(=O)O)C1CCCC1; Pro(4,4-F2) = O=C(O)[C@@H]1CC(F)(F)CN1; NMeD = CN[C@@H](CC(=O)O)C(=O)O; NMeL = CN[C@@H](CC(C)C)C(=O)O; hPip = O=C(O)[C@@H]1CCCCCN1; Morpholide = C1CN(*)CCO1; NMeA = CN[C@@H](C)C(=O)O; Ac5c = NC1(C(=O)O)CCCC1; Aze = O=C(O)[C@@H]1CCN1; NEtG = CCNCC(=O)O; Sar = CNCC(=O)O

What was measured:
[1] = target: GDP-bound NRAS wild-type protein (Homo sapiens, UniProt P01111); test: Binding to NRAS by surface plasmon resonance (SPR), Single Cycle Kinetics; conditions: for NRAS/KRAS (ratio of KD value for NRAS to KD value for KRAS) / NRAS/KRAS (ratio of KD value with respect to NRAS to KD value with respect to KRAS): SPR, GDP-bound NRAS wild-type protein vs GDP-bound KRAS wild-type protein
[2] = target: GDP-bound HRAS wild-type protein (Homo sapiens, UniProt P01112); test: Binding to HRAS by surface plasmon resonance (SPR), Single Cycle Kinetics; conditions: for HRAS/KRAS (ratio of KD value for HRAS to KD value for KRAS) / HRAS/KRAS (ratio of KD value with respect to HRAS to KD value with respect to KRAS): SPR, GDP-bound HRAS wild-type protein vs GDP-bound KRAS wild-type protein
[3] = target: GDP-bound KRAS wild-type protein (Homo sapiens, UniProt P01116); test: Binding to KRAS by surface plasmon resonance (SPR), Single Cycle Kinetics; conditions: GDP-bound KRAS wild-type protein, read-out: KRAS KD
[4] = SPR Single Cycle Kinetics, 1:1 binding model

Sequence of GDP-bound NRAS wild-type protein (P01111 whole entry): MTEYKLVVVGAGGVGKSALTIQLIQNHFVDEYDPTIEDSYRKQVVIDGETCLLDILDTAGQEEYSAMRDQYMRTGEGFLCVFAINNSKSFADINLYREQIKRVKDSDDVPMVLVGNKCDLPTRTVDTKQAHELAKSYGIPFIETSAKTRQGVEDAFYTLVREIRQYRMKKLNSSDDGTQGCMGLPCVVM
Sequence of GDP-bound HRAS wild-type protein (P01112 whole entry): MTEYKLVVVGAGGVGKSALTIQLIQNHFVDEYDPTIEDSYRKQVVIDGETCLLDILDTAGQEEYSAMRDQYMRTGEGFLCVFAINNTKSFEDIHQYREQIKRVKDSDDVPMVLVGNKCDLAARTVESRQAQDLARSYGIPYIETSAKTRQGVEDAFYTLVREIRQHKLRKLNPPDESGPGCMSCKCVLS
Sequence of GDP-bound KRAS wild-type protein (P01116 whole entry): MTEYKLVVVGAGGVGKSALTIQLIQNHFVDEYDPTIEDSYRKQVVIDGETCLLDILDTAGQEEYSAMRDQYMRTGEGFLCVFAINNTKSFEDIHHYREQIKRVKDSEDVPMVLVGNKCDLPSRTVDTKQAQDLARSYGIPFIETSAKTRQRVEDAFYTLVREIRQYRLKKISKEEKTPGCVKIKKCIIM

SMILES | Kd ([3]; SPR, Single Cycle Kinetics) | Kd [3, 4] | NRAS/KRAS (ratio of KD value for NRAS to KD value for KRAS) [1] | HRAS/KRAS (ratio of KD value for HRAS to KD value for KRAS) [2] | other results
CCO[C@@H]1C[C@H]2C(=O)NC3(CCC3)C(=O)N(C)[C@@H](C3CCCC3)C(=O)N(C)[C@H](C(=O)N(C)C)CC(=O)N(C)[C@@H](Cc3cccc(C)c3)C(=O)N[C@@H]([C@@H](C)CC)C(=O)N(C)CC(=O)N(C)[C@H]3CCCCCN(C3=O)[C@@H](Cc3ccc(C(F)(F)F)cc3)C(=O)N(C)CC(=O)N[C@@H](CCc3cc(F)c(C(F)(F)F)c(F)c3)C(=O)N2C1 [PP0942] | 0.99 nM |  | B (a compound having 3 or more and less than 10 is denoted as B) | B (a compound having 3 or more and less than 10 is denoted as B) | 
CCO[C@@H]1C[C@H]2C(=O)NC3(CCCC3)C(=O)N(C)[C@@H](C3CCCC3)C(=O)N(C)[C@H](C(=O)N3CCOCC3)CC(=O)N(C)[C@@H](CC)C(=O)N[C@@H]([C@@H](C)CC)C(=O)N(C)CC(=O)N(C)[C@H]3C[C@@H](C)CCN(C3=O)[C@@H](Cc3ccc(C(F)(F)F)cc3)C(=O)N(C)CC(=O)N[C@@H](CCc3cc(F)c(C(F)(F)F)c(F)c3)C(=O)N2C1 [PP1029] | 0.078 nM |  | C (A compound having a KD ratio of 0.1 or more and less than 3 is denoted as C) | B (a compound having 3 or more and less than 10 is denoted as B) | 
CCO[C@@H]1C[C@H]2C(=O)NC3(CCCC3)C(=O)N(C)[C@@H](C3CCCC3)C(=O)N(C)[C@H](C(=O)N3CCOCC3)CC(=O)N(C)[C@@H](CC)C(=O)N[C@@H]([C@@H](C)CC)C(=O)N(C)CC(=O)N(C)[C@H]3C[C@H](C)C(C)CN(C3=O)[C@@H](Cc3ccc(C(F)(F)F)cc3)C(=O)N(C)CC(=O)N[C@@H](CCc3cc(F)c(C(F)(F)F)c(F)c3)C(=O)N2C1 (stereo partly drawn) [PP1348] |  |  |  |  | NRAS/KRAS (ratio of KD value for NRAS to KD value for KRAS) ([1]; KD ratio class): B (a compound having 3 or more and less than 10 is denoted as B); HRAS/KRAS (ratio of KD value for HRAS to KD value for KRAS) ([2]; KD ratio class): B (a compound having 3 or more and less than 10 is denoted as B); Kd ([3]; SPR, Single Cycle Kinetics, 1:1 binding model): 0.076 nM
CCO[C@@H]1C[C@H]2C(=O)NC3(CCC3)C(=O)N(C)[C@@H](C3CCCC3)C(=O)N(C)[C@H](C(=O)N(C)C)CC(=O)N(C)[C@@H](CC)C(=O)N[C@@H]([C@@H](C)CC)C(=O)N(C)CC(=O)N(C)[C@H]3CCCCN(C3=O)[C@@H](Cc3ccc(C(F)(F)F)cc3)C(=O)N(C)CC(=O)N[C@@H](CCc3ccc(C(F)(F)F)c(OC)c3)C(=O)N2C1 [PP0884] | 0.022 nM |  | C (A compound having a KD ratio of 0.1 or more and less than 3 is denoted as C) | C (A compound having a KD ratio of 0.1 or more and less than 3 is denoted as C) | 
CC[C@H](C)[C@@H]1NC(=O)[C@H](CC(C)C)N(C)C(=O)C[C@@H](C(=O)N2CCOCC2)N(C)C(=O)[C@H](C2CCCC2)N(C)C(=O)C2(CCCC2)NC(=O)[C@@H]2CC(=O)CN2C(=O)[C@H](CCc2cc(F)c(C(F)(F)F)c(F)c2)NC(=O)CN(C)C(=O)[C@H](Cc2ccc(C(F)(F)F)cc2)N2CCCC[C@@H](C2=O)N(C)C(=O)CN(C)C1=O [PP0555] |  | 0.066 nM |  |  | NRAS/KRAS (ratio of KD value with respect to NRAS to KD value with respect to KRAS) [1]: B (a compound having 3 or more and less than 10 is denoted as B); HRAS/KRAS (ratio of KD value with respect to HRAS to KD value with respect to KRAS) [2]: B (a compound having 3 or more and less than 10 is denoted as B)
CCCN1C(=O)CN(C)C(=O)CN(C)C(=O)[C@H]([C@@H](C)CC)NC(=O)[C@@H]2CCCCCN2C(=O)C[C@@H](C(=O)N2CCOCC2)N(C)C(=O)[C@H](C2CCCC2)N(C)C(=O)C2(CCCC2)NC(=O)[C@@H]2CCCN2C(=O)[C@H](CCc2ccc(C(F)(F)F)c(Cl)c2)NC(=O)CN(C)C(=O)[C@@H]1Cc1ccc(C(F)(F)F)cc1 [PP0247] ([hPip]I[Sar][Sar][NPrPhe(4-CF3)][Sar][hPhe(3-Cl-4-CF3)]P[Ac5c][NMeGly(cPent)][NMeD]-Morpholide; lactam N-11) |  | 0.38 nM | B (a compound having 3 or more and less than 10 is denoted as B) | C (A compound having a KD ratio of 0.1 or more and less than 3 is denoted as C) | 
CCCN1C(=O)CN(C)C(=O)CNC(=O)[C@H]([C@@H](C)CC)NC(=O)[C@H](CC(C)C)N(C)C(=O)C[C@@H](C(=O)N(C)C)N(C)C(=O)[C@H](C2CCCC2)N(C)C(=O)C2(CCCC2)NC(=O)[C@@H]2CCCN2C(=O)[C@H](CCc2ccc(C(F)(F)F)c(Cl)c2)NC(=O)CN(C)C(=O)[C@@H]1Cc1ccc(C(F)(F)F)cc1 [PP0417] ([NMeL]IG[Sar][NPrPhe(4-CF3)][Sar][hPhe(3-Cl-4-CF3)]P[Ac5c][NMeGly(cPent)][NMeD]-NMe2; lactam N-11) |  | 0.074 nM |  |  | NRAS/KRAS (ratio of KD value with respect to NRAS to KD value with respect to KRAS) [1]: B (a compound having 3 or more and less than 10 is denoted as B); HRAS/KRAS (ratio of KD value with respect to HRAS to KD value with respect to KRAS) [2]: C (A compound having a KD ratio of 0.1 or more and less than 3 is denoted as C)
CC[C@H](C)[C@@H]1NC(=O)[C@H](CC(C)C)N(C)C(=O)C[C@@H](C(=O)N2CCOCC2)N(C)C(=O)[C@H](C2CCCC2)N(C)C(=O)C2(CCCC2)NC(=O)[C@@H]2CCCN2C(=O)[C@H](CCc2ccc(C(F)(F)F)c(Cl)c2)NC(=O)CN(CC)C(=O)[C@H](Cc2ccc(C)cc2)N(C)C(=O)CN(CC)C(=O)CN(C)C1=O [PP0029] ([NMeL]I[Sar][NEtG][NMePhe(4-Me)][NEtG][hPhe(3-Cl-4-CF3)]P[Ac5c][NMeGly(cPent)][NMeD]-Morpholide; lactam N-11) |  | 7 nM | C (A compound having a KD ratio of 0.1 or more and less than 3 is denoted as C) | C (A compound having a KD ratio of 0.1 or more and less than 3 is denoted as C) | 

Now from value to compound, other results behind:

Kd ([3]; SPR, Single Cycle Kinetics) | Kd [3, 4] | SMILES | NRAS/KRAS (ratio of KD value for NRAS to KD value for KRAS) [1] | HRAS/KRAS (ratio of KD value for HRAS to KD value for KRAS) [2] | other results
 | 0.26 nM | CCCN1C(=O)[C@@H]2CCN2C(=O)[C@H](C)N(C)C(=O)[C@H]([C@@H](C)CC)NC(=O)[C@H](CC(C)C)N(C)C(=O)C[C@@H](C(=O)N2CCOCC2)N(C)C(=O)[C@H](C2CCCC2)N(C)C(=O)C2(CCCC2)NC(=O)[C@@H]2CCCN2C(=O)[C@H](CCc2ccc(Cl)c(Cl)c2)NC(=O)CN(C)C(=O)[C@@H]1Cc1ccc(C(F)(F)F)cc1 [PP0227] ([NMeL]I[NMeA][Aze][NPrPhe(4-CF3)][Sar][hPhe(3,4-Cl2)]P[Ac5c][NMeGly(cPent)][NMeD]-Morpholide; lactam N-11) | C (A compound having a KD ratio of 0.1 or more and less than 3 is denoted as C) | B (a compound having 3 or more and less than 10 is denoted as B) | 
 | 0.24 nM | CCCN1C(=O)CN(C)C(=O)CNC(=O)[C@H]([C@@H](C)CC)NC(=O)[C@H](CC(C)C)N(C)C(=O)C[C@@H](C(=O)N2CCOCC2)N(C)C(=O)[C@H](C2CCCC2)N(C)C(=O)C2(CCCC2)NC(=O)[C@@H]2CC(F)(F)CN2C(=O)[C@H](CCc2ccc(C(F)(F)F)c(Cl)c2)NC(=O)CN(C)C(=O)[C@@H]1Cc1ccc(C(F)(F)F)cc1 [PP0394] ([NMeL]IG[Sar][NPrPhe(4-CF3)][Sar][hPhe(3-Cl-4-CF3)][Pro(4,4-F2)][Ac5c][NMeGly(cPent)][NMeD]-Morpholide; lactam N-11) | C (A compound having a KD ratio of 0.1 or more and less than 3 is denoted as C) | C (A compound having a KD ratio of 0.1 or more and less than 3 is denoted as C) | 
 | 0.12 nM | CCO[C@@H]1C[C@H]2C(=O)NC3(CCC3)C(=O)N(C)[C@@H](C3CCCC3)C(=O)N(C)[C@H](C(=O)N(C)CC)CC(=O)N(C)[C@@H](CC3CCC3)C(=O)N[C@@H]([C@@H](C)CC)C(=O)N(C)CC(=O)N(C)[C@H]3C/C=C\CCN(C3=O)[C@@H](Cc3ccc(C(F)(F)F)cc3)C(=O)N(C)CC(=O)N[C@@H](CCc3ccc(C(F)(F)F)c(OC)c3)C(=O)N2C1 [PP2825] |  |  | NRAS/KRAS (ratio of KD value with respect to GDP-bound NRAS wild-type protein to KD value with respect to KRAS) ([1]; SPR KD ratio NRAS/KRAS, class symbols): A (a compound having 10 or more and less than 20 is denoted as A); HRAS/KRAS (ratio of KD value with respect to GDP-bound HRAS wild-type protein to KD value with respect to KRAS) ([2]; SPR KD ratio HRAS/KRAS, class symbols): B (a compound having 3 or more and less than 10 is denoted as B)
0.67 nM |  | CCO[C@@H]1C[C@H]2C(=O)NC3(CCCC3)C(=O)N(C)[C@@H](C3CCCC3)C(=O)N(C)[C@H](C(=O)N(C)C)CC(=O)N(C)[C@@H](CC(C)C)C(=O)N[C@@H]([C@@H](C)CC)C(=O)N(C)CC(=O)N(C)[C@H]3CC(C)=CCN(C3=O)[C@@H](Cc3ccc(C(F)(F)F)cc3)C(=O)N(C)CC(=O)N[C@@H](CCc3cc(F)c(C(F)(F)F)c(F)c3)C(=O)N2C1 [PP1031] | C (A compound having a KD ratio of 0.1 or more and less than 3 is denoted as C) | C (A compound having a KD ratio of 0.1 or more and less than 3 is denoted as C) | 
2.7 nM |  | CCO[C@@H]1C[C@H]2C(=O)NC3(CCC3)C(=O)N(C)[C@@H](C3CCCC3)C(=O)N(C)[C@H](C(=O)N3CCOCC3)CC(=O)N(C)[C@@H](Cc3ccccc3Cl)C(=O)N[C@@H]([C@@H](C)CC)C(=O)N(C)CC(=O)N(C)[C@H]3CCCCCN(C3=O)[C@@H](Cc3ccc(C(F)(F)F)cc3)C(=O)N(C)CC(=O)N[C@@H](CCc3cc(F)c(C(F)(F)F)c(F)c3)C(=O)N2C1 [PP0929] | A (a compound having 10 or more and less than 20 is denoted as A) | B (a compound having 3 or more and less than 10 is denoted as B) | 
